Experimental data from patent publication US12371436B2, “Substituted benzodiazoliums as ENaC inhibitors” (ENTERPRISE THERAPEUTICS LIMITED, priority 2016, dated 2025).
Counter-ions that a name gives are not always drawn.

These molecules were tested against T1, ENaC (Homo sapiens, UniProt P37088+P51168+P51170) (assay: Short circuit current assay to determine ENaC blocker potency in human bronchial epithelial cells). Settings: 50% inhibition of total amiloride-sensitive ISC, apical addition, read-out: Averages.ENaC IC50 (nM) Avg.
T1 construct: host or cells: primary human bronchial epithelial cells (HBECs) differentiated at air-liquid interface
T1 sequence (P37088 1-669): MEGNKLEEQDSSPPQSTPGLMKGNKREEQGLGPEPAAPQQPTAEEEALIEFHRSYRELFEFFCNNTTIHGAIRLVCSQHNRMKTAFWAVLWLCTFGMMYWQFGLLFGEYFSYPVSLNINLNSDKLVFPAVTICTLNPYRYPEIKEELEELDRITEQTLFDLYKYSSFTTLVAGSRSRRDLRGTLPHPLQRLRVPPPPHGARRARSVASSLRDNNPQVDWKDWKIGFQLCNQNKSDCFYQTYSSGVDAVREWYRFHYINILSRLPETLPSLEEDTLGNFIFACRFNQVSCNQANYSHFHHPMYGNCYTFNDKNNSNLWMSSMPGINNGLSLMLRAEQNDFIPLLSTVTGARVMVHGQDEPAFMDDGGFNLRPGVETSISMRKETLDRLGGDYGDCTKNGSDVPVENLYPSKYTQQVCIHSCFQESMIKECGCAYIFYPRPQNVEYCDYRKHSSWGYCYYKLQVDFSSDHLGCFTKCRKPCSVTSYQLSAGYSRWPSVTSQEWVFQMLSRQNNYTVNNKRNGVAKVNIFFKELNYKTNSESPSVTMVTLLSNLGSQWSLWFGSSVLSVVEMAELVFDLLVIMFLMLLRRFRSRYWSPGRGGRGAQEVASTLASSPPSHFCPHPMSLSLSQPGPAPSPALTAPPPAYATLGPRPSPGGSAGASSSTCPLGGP
T1 sequence (P51168 1-640): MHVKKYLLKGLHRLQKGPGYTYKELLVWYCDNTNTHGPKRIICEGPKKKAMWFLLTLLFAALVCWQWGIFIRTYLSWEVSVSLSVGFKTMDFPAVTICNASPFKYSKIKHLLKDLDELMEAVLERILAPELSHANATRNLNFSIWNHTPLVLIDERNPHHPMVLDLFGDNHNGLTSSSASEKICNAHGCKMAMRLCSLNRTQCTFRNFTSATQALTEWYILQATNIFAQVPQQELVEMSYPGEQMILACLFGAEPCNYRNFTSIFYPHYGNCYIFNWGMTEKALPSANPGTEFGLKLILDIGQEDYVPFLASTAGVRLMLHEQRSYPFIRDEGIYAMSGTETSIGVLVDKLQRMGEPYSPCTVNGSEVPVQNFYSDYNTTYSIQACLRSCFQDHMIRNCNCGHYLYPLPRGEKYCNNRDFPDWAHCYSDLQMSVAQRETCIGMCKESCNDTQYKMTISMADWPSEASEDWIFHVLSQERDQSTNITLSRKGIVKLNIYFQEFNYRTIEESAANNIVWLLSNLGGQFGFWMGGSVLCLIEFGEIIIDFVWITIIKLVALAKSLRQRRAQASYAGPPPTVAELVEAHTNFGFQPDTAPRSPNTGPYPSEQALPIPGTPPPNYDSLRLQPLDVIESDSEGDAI
T1 sequence (P51170 1-649): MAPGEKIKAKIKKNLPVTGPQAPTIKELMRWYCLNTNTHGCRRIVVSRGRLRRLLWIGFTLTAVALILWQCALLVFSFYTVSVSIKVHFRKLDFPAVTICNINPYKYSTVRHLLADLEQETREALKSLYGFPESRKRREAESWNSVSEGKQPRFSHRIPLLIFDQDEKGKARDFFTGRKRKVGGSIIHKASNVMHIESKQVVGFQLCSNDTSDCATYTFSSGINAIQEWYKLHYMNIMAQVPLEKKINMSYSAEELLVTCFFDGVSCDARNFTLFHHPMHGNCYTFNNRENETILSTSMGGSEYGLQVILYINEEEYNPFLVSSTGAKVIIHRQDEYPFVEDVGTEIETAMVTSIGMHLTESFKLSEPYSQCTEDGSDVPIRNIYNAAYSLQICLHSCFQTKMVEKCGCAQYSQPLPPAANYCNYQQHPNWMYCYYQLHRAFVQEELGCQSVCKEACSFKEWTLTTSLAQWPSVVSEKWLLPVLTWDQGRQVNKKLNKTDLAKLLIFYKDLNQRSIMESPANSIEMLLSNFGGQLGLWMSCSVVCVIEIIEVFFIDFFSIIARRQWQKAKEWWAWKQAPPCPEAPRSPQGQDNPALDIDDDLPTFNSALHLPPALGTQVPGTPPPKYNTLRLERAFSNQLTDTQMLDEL
Format: cell-based
Method: Example 68—Short circuit current assay to determine ENaC blocker potency in human bronchial epithelial cells
Human bronchial epithelial cells (HBECs) (Lonza, UK) were cultured using a modification of the method described by Coote et al, (2008). Cells were seeded into plastic T-75 flasks and grown in Bronchial Epithelial Cell Growth Medium (BEGM) (Lonza, UK) supplemented with bovine pituitary extract (52 ng/mL), hydrocortisone (0.5 μg/mL), human recombinant Epidermal Growth Factor (0.5 ng/mL), epinephrine (0.5 ng/mL), transferrin (10 ng/mL), insulin (5 ng/mL), retinoic acid (0.1 ng/mL), triiodothyronine (6.5 ng/mL), gentamycin (50 μg/mL) and amphotericin-B (50 ng/mL). Medium was changed every 48 hours until cells were 90% confluent. Cells were then passaged and seeded (8.25×10^5 cells/insert) onto polycarbonate Snapwell™ inserts (Costar, UK) in differentiation media containing 50% DMEM in BGEM with the same supplements as above but without triiodothyronine and a final retinoic acid concentration of 50 nM (all-trans retinoic acid; Sigma-Aldrich, UK). Cells were maintained submerged for the first 7 days in culture after which time they were exposed to an apical air interface for the remainder of the culture period. From the first day of establishment of an ALI, HBEC were fed with a DMEM:HAMS F-12 (1:1) media containing 2% Ultroser G (Pall BioSepra, France) with gentamycin (50 μg/mL) and amphotericin B (50 ng/mL). Cells were used for short-circuit current assay between days 14-21 after the establishment of the ALI. At all stages of culture, cells were maintained at 37° C. in 5% CO2 in an air incubator.
Short-Circuit Current (ISC) Measurements
Snapwell inserts were mounted in Costar Vertical Diffusion Chambers (Costar, UK) and were bathed with continuously gassed Ringer solution (5% CO2 in O2; pH 7.4) maintained at 37° C. containing (in mM): 120 NaCl, 25 NaHCO3, 3.3 KH2PO4, 0.8 K2HPO4, 1.2 CaCl2, 1.2 MgCl2 and 10 glucose. The solution osmolarity was always between 280-300 mOsm/kg H2O for all physiological salt solutions used. Cells were voltage clamped to 0 mV (model EVC4000, WPI). Transepithelial resistance (RT) was measured by applying a 2 mV pulse at 30 s intervals and calculating RT by Ohm's law. Data were recorded using a PowerLab workstation (ADlnstruments, UK).
ENaC blocker compounds were added to the apical chamber from a 1000-fold stock solution (prepared in DMSO) to achieve a cumulative concentration response in terms of the inhibition of the basal ISC. At the completion of the concentration response, a supra-maximal concentration of amiloride (10 μM) was added. The concentration of test compound that induced a 50% inhibition of the total amiloride-sensitive ISC (IC50) was calculated using GraphPad Prism v6.05. The results are presented in Table 2, from which it can be seen that the compounds of the present invention have ENaC inhibiting activity.

| SMILES | IC50 |
| --- | --- |
| CCn1c(CNC(=O)c2nc3cc[nH]c3nc2N)[n+](Cc2ccccc2)c2ccc(OC)cc21 [Example 8, 2-[({3-amino-5H-pyrrolo[2,3-b]pyrazin-2-yl}formamido)methyl]-3-benzyl-1-ethyl-6-methoxy-1H-1,3-benzodiazol-3-ium formate] | 9 nM |
| CCn1c(CNC(=O)c2nc3cc[nH]c3nc2N)[n+](CC)c2ccc(OCCCN)cc21 [Example 28, 2-[({3-amino-5H-pyrrolo[2,3-b]pyrazin-2-yl}formamido)methyl]-6-(3-aminopropoxy)-1,3-diethyl-1H-1,3-benzodiazol-3-ium] | 7 nM |
| CCn1c(CNC(=O)c2nc3cc[nH]c3nc2N)[n+](Cc2ccccc2)c2ccc(C(F)(F)F)cc21 [Example 17, 2-[({3-amino-5H-pyrrolo[2,3-b]pyrazin-2-yl}formamido)methyl]-3-benzyl-1-ethyl-6-(trifluoromethyl)-1H-1,3-benzodiazol-3-ium] | 15 nM |
| CCn1c(CNC(=O)c2nc3cc[nH]c3nc2N)[n+](CC(N)=O)c2ccc(OC)cc21 [Example 11, 2-[({3-amino-5H-pyrrolo[2,3-b]pyrazin-2-yl}formamido)methyl]-3-(carbamoylmethyl)-1-ethyl-6-methoxy-1H-1,3-benzodiazol-3-ium bromide] | 22 nM |
| CCn1c(CNC(=O)c2nc3cc[nH]c3nc2N)[n+](CC)c2ccc(C(=O)N3CC[C@@H](N(C[C@H](O)[C@@H](O)[C@H](O)[C@H](O)CO)C[C@H](O)[C@@H](O)[C@H](O)[C@H](O)CO)C3)cc21 [Example 53, 2-[({3-amino-5H-pyrrolo[2,3-b]pyrazin-2-yl}formamido)methyl]-6-[(3R)-3-{bis[(2S,3R,4R,5R)-2,3,4,5,6-pentahydroxyhexyl]amino}pyrrolidine-1-carbonyl]-1,3-diethyl-1H-1,3-benzodiazol-3-ium] | 202 nM |
| CCn1c(CNC(=O)c2nc3cc[nH]c3nc2N)[n+](CC(=O)OC)c2ccc(OC)cc21 [Example 9, 2-[({3-amino-5H-pyrrolo[2,3-b]pyrazin-2-yl}formamido)methyl]-1-ethyl-6-methoxy-3-(2-methoxy-2-oxoethyl)-1H-1,3-benzodiazol-3-ium bromide] | 48 nM |
| CCn1c(CNC(=O)c2nc3c(Cl)c[nH]c3nc2N)[n+](CC)c2ccc(C(=O)N3CCC(N(C[C@H](O)[C@@H](O)[C@H](O)[C@H](O)CO)C[C@H](O)[C@@H](O)[C@H](O)[C@H](O)CO)CC3)cc21 [Example 65, 2-[({3-amino-7-chloro-5H-pyrrolo[2,3-b]pyrazin-2-yl}formamido)methyl]-6-(4-{bis[(2S,3R,4R,5R)-2,3,4,5,6-pentahydroxyhexyl]amino}piperidine-1-carbonyl)-1,3-diethyl-1H-1,3-benzodiazol-3-ium] | 49 nM |
| CCn1c(CNC(=O)c2nc3cc[nH]c3nc2N)[n+](CC)c2ccc(C3CCN(C[C@H](O)[C@@H](O)[C@H](O)[C@H](O)CO)CC3)cc21 [Example 46, 2-[({3-amino-5H-pyrrolo[2,3-b]pyrazin-2-yl}formamido)methyl]-1,3-diethyl-6-{1-[(2S,3R,4R,5R)-2,3,4,5,6-pentahydroxyhexyl]piperidin-4-yl}-1H-1,3-benzodiazol-3-ium] | 8 nM |
| CCn1c(CNC(=O)c2nc3cc[nH]c3nc2N)[n+](CC)c2ccc(C3CCNCC3)cc21 [Example 30, 2-[({3-amino-5H-pyrrolo[2,3-b]pyrazin-2-yl}formamido)methyl]-1,3-diethyl-6-(piperidin-4-yl)-1H-1,3-benzodiazol-3-ium] | 6 nM |
| CCn1c(CNC(=O)c2nc3cc[nH]c3nc2N)[n+](CC)c2ccc(C(=O)NCCCN(C[C@H](O)[C@@H](O)[C@H](O)[C@H](O)CO)C[C@H](O)[C@@H](O)[C@H](O)[C@H](O)CO)cc21 [Example 48, 2-[({3-amino-5H-pyrrolo[2,3-b]pyrazin-2-yl}formamido)methyl]-6-[(3-{bis[(2S,3R,4R,5R)-2,3,4,5,6-pentahydroxyhexyl]amino}propyl)carbamoyl]-1,3-diethyl-1H-1,3-benzodiazol-3-ium] | 18 nM |
| CCn1c(CNC(=O)c2nc3cc[nH]c3nc2N)[n+](CC)c2ccc(OCCCN(C[C@H](O)[C@@H](O)[C@H](O)[C@H](O)CO)C[C@H](O)[C@@H](O)[C@H](O)[C@H](O)CO)cc21 [Example 44, 2-[({3-amino-5H-pyrrolo[2,3-b]pyrazin-2-yl}formamido)methyl]-5-(3-{bis[(2S,3R,4R,5R)-2,3,4,5,6-pentahydroxyhexyl]amino}propoxy)-1,3-diethyl-1H-1,3-benzodiazol-3-ium] | 21 nM |
| CCn1c(CNC(=O)c2nc3cc[nH]c3nc2N)[n+](C)c2ccc(OC)cc21 [Example 4, 2-[({3-amino-5H-pyrrolo[2,3-b]pyrazin-2-yl}formamido)methyl]-1-ethyl-6-methoxy-3-methyl-1H-1,3-benzodiazol-3-ium formate] | 8 nM |
| CCn1c(CNC(=O)c2nc3c(Cl)c[nH]c3nc2N)[n+](CC)c2ccc(C(=O)O)cc21 [Example 63, 2-[({3-amino-7-chloro-5H-pyrrolo[2,3-b]pyrazin-2-yl}formamido)methyl]-6-carboxy-1,3-diethyl-1H-1,3-benzodiazol-3-ium] | 133 nM |
